Values joined by “and” are separate entries in the source; they are usually repeats but may differ in a detail not shown here. Equal values may be shown once.

Experiment [1] relates to Pioneer inbred ED85E seedlings / leaf segments. The experiment in a line: Gibberellic acid inhibitor seedling pre-treatment, leaf transformation (Table 24). It is filed as in vivo, maize.
For experiment [2], the system named is Pioneer inbred GR0112 seedlings / leaf segments. The experiment in a line: Fipexide seedling pre-treatment, leaf transformation (Table 26). It counts as in vivo, maize. The note with it: for # culture response (2 wk) / # culture response (4 wk) / T-DNA score (0-5): 42 seedlings, PHP96277; for increase of total somatic embryo (SE) number relative to the control treatment: within the first four weeks of culture, per 42 starting seedlings.

The subject of experiment [3] is Pioneer inbred ED85E and GR013D seedlings / leaf segments. Description: Sugar (maltose) seedling pre-treatment, leaf transformation (Table 27). It counts as in vivo, maize.
For experiment [4], the system named is Pioneer inbred ED85E seedlings / leaf segments. The experiment in a line: Cytokinin seedling pre-treatment, leaf transformation (Table 25). It is filed as in vivo, maize. The note with it: for # T0 plants / # culture response (2 wk) / # culture response (4 wk) / T-DNA score (0-5) / TXN %: 21 seedlings, PHP97334.
Experiment [5] has as its system Pioneer inbred GR0112 seedlings / leaf segments. Description: Norflurazon (abscisic acid biosynthesis inhibitor) seedling pre-treatment, leaf transformation (Table 28). It counts as in vivo, maize. The note with it: for # culture response (2 wk): 2 weeks after infection.
Experiment [6] relates to Japonica rice (Oryza sativa var Kitaake) seedlings. Description: Ancymidol pre-treatment during seed germination and seedling growth, rice. It is filed as in vivo.
The subject of experiment [7] is maize inbred seedlings with pre-integrated target site 45 / leaf segments. The experiment in a line: Seedling pre-treatment with ancymidol, Agrobacterium-mediated site-specific integration (Table 22). The note with it: 90AE medium (900 + 2 mg/l ancymidol); 30 seedlings; PHP90842:PHP93925 9:1; no untreated comparison. It is filed as in vivo.
The test system of experiment [8] is teff (Eragrostis tef) seedlings. The experiment in a line: Ancymidol pre-treatment during seed germination and seedling growth, teff. It counts as in vivo.
Experiment [9] deals with pearl millet (Pennisetum glaucum) seedlings. Description: Ancymidol pre-treatment during seed germination and seedling growth, pearl millet. It counts as in vivo.
The mark [10] stands for this setting: 250 mg/l in 90AO medium (900 + 1 mg/l ancymidol), 30 seedlings, PHP97334.
The mark [11] stands for this setting: 500 mg/l in 90AO medium (900 + 1 mg/l ancymidol), 30 seedlings, PHP97334.
Setting [12] is: 4.75 mg/l in 90AE medium (+ 2 mg/l ancymidol).
[13] abbreviates: 9.5 mg/l in 90AE medium (+ 2 mg/l ancymidol).
[14] abbreviates: 19 mg/l in 90AE medium (+ 2 mg/l ancymidol).
The mark [15] stands for this setting: 2 mg/l in 900 germination medium, 24 seedlings, PHP101093.
Setting [16] is: 4 mg/l in 900 germination medium, 24 seedlings, PHP101093.
Where [17] appears, read: 6 mg/l in 900 germination medium, 24 seedlings, PHP101093.
The mark [18] stands for this setting: 20 mg/l maltose in place of sucrose, 90AE medium, second replicate (inbred GR013D), 30 seedlings, PHP104215.
The mark [19] stands for this setting: 0.1 mg/l in 90AE medium (+ 2 mg/l ancymidol).
Setting [20] is: 0.5 mg/l in 90AE medium (+ 2 mg/l ancymidol).
[21] abbreviates: 1 mg/l in 90AE medium (+ 2 mg/l ancymidol).
Setting [22] is: 5 mg/l in 90AE medium (+ 2 mg/l ancymidol).
Setting [23] is: 3 mg/l in 90AE medium (+ 2 mg/l ancymidol).
The mark [24] stands for this setting: 900 medium plus 2 mg/l ancymidol.

Take `C[N+](C)(C)CCCl` [Chlormequat chloride, chlormequat chloride]: in experiment [1] (setting [10]), the “# T0 plants” value was found to be 145, the “# culture response (2 wk)” value is 265, the “# culture response (4 wk)” value worked out at 318 and the “T-DNA score (0-5)” value came out at 4.5. For the same molecule, the TXN % in experiment [1] (setting [10]) stood at 483%. Further, in [1] (250 mg/l pretreatment of ED85E seedlings), the “improvement of T0 transformation frequency (Txn %) relative to the control” value stood at 1.4 fold. In addition, in [1] (setting [11]), the “# T0 plants” value came out at 108, the “# culture response (2 wk)” value is 302, the “# culture response (4 wk)” value was determined as 339 and the “T-DNA score (0-5)” value was found to be 4.5. The TXN % in experiment [1] (setting [11]) was found to be 360%.

`O=C(COc1ccc(Cl)cc1)N1CCN(Cc2ccc3c(c2)OCO3)CC1` [Fipexide, fipexide]: the entries for the “# culture response (2 wk)” value in experiment [2] (setting [12]), in experiment [2] (setting [13]) and in experiment [2] (setting [14]) were 768, 681 and 636, respectively. The “# culture response (4 wk)” value in experiment [2] (setting [12]) is 829; in experiment [2] (setting [13]), 780; in experiment [2] (setting [14]), 733. For the same molecule, the “T-DNA score (0-5)” value in [2] (setting [12]) amounted to 4; in experiment [2] (setting [13]), 3.5; in experiment [2] (setting [14]), 3.5. For the same molecule, the “increase of total somatic embryo (SE) number relative to the control treatment” value in experiment [2] (4.75 mg/l) is 1.4 fold; in [2] (9.5 mg/l), 1.3 fold; in [2] (19 mg/l), 1.2 fold.

As to `CC(C)(C)[C@@H](O)[C@@H](Cc1ccc(Cl)cc1)n1cncn1` (racemic) [PBZ, paclobutrazol], in experiment [1] (setting [15]), the “# T0 plants” value was 60, the “# culture response (2 wk)” value came out at 271, the “# culture response (4 wk)” value was determined as 224 and the “T-DNA score (0-5)” value came out at 3.5. The TXN % in [1] (setting [15]) worked out at 250%. For the same molecule, in [1] (setting [16]), the “# T0 plants” value was 40, the “# culture response (2 wk)” value worked out at 212, the “# culture response (4 wk)” value stood at 156 and the “T-DNA score (0-5)” value was 3.5. Also, the TXN % in experiment [1] (setting [16]) turned out to be 167%. In addition, in experiment [1] (setting [17]), the “# T0 plants” value is listed as 29, the “# culture response (2 wk)” value is reported as 151, the “# culture response (4 wk)” value is 99 and the “T-DNA score (0-5)” value is 3.5. Further, the TXN % in experiment [1] (setting [17]) stood at 121%. In experiment [1] (concentrations tested in Table 24 (paclobutrazol 2-6 mg/l, daminozide 50-150 mg/l)), the “trend in the T0 transformation data” value is “no clear trend”. The “T0 transformation frequencies relative to the control treatment” value in experiment [1] (higher concentration ranges 10, 20, 50 mg/l, stated in present tense, no data) was “increase”.

Take `OC[C@H]1O[C@H](O[C@H]2[C@H](O)[C@@H](O)C(O)O[C@@H]2CO)[C@H](O)[C@@H](O)[C@@H]1O` (mixture of isomers) [Maltose, maltose]: the “improvement of T0 Txn % relative to seedlings grown on 20 mg/l sucrose” value in experiment [3] (20 mg/l maltose as the carbon source, inbred GR013D) stood at 1.3 fold. Moreover, in [3] (setting [18]), the “# T0 plants” value is 25, the “# culture response (2 wk)” value was found to be 650, the “# culture response (4 wk)” value was determined as 562 and the “T-DNA score (0-5)” value turned out to be 4. Further, in [3] (setting [18]), the TXN % is recorded as 83%.

For the molecule `O=C(Nc1ccccc1)Nc1cnns1` [TDZ, thidiazuron], in [4] (setting [19]), the “# T0 plants” value was determined as 99, the “# culture response (2 wk)” value stood at 169, the “# culture response (4 wk)” value amounted to 121 and the “T-DNA score (0-5)” value is on record as 4. In addition, the TXN % in experiment [4] (setting [19]) is on record as 471%. In experiment [4] (setting [20]), the “# T0 plants” value turned out to be 97, the “# culture response (2 wk)” value is 182, the “# culture response (4 wk)” value was found to be 122 and the “T-DNA score (0-5)” value was found to be 4. In addition, the TXN % in [4] (setting [20]) worked out at 462%. In addition, in experiment [4] (0.1 and 0.5 mg/l), the “change over the control treatment” value is reported as “no increase”. Further, in experiment [4] (higher concentration ranges, such as 1, 2, 5, or 10 mg/l, stated in present tense, no data), the “somatic embryo response and transformation frequency (Txn %)” value is reported as “increase”.

`CN(C)NC(=O)CCC(=O)O` [Daminozide, daminozide]: in experiment [1] (in vivo), the “# T0 plants” value is 71 and 41 and 53; the “# culture response (2 wk)” value was 87 and 103 and 70; the “# culture response (4 wk)” value was 99 and 103 and 95; the “T0 transformation frequencies relative to the control treatment” value was “increase”. Besides, in experiment [1] (in vivo), the “T-DNA score (0-5)” value was 4; the TXN % is 355% and 205% and 265%; the “trend in the T0 transformation data” value was “no clear trend”.

For the molecule `CNc1cnn(-c2cccc(C(F)(F)F)c2)c(=O)c1Cl` [norflurazon], in [5] (0.1 mg/l norflurazon, inbred GR0112, within the first two weeks of culture after Agrobacterium infection), the “improvement of T0 Txn % relative to the control treatment” value worked out at 1.1 fold. The “T-DNA score (0-5)” value was found to be 4 in experiment [5] (norflurazon 0.1 mg/l in 90AE germination medium, inbred GR0112); 1.5 in [5] (norflurazon 1 mg/l in 90AE germination medium, inbred GR0112); 2 in experiment [5] (norflurazon 3 mg/l in 90AE germination medium, inbred GR0112). In addition, the “# culture response (2 wk)” value in experiment [5] (norflurazon 0.1 mg/l, 22 seedlings) stood at 350; in experiment [5] (norflurazon 1 mg/l, 7 seedlings) it was 19; in experiment [5] (norflurazon 3 mg/l, 7 seedlings), 45.

On to `c1ccc(CNc2ncnc3nc[nH]c23)cc1` [BAP, 6-benylamino purine], for which, in experiment [4] (1 mg/l), the “increase of T0 Txn % relative to the control seedling germination medium with no cytokinin” value came to 1.4 fold. Moreover, in experiment [4] (setting [21]), the “# T0 plants” value was found to be 97, the “# culture response (2 wk)” value is 135, the “# culture response (4 wk)” value was 151 and the “T-DNA score (0-5)” value is on record as 4. For the same molecule, the TXN % in experiment [4] (setting [21]) is given as 462%. For the same molecule, the “increase of T0 Txn % relative to the control seedling germination medium with no cytokinin” value in [4] (5 mg/l) was 1.8 fold. In experiment [4] (setting [22]), the “# T0 plants” value was 128, the “# culture response (2 wk)” value was found to be 144, the “# culture response (4 wk)” value was 172 and the “T-DNA score (0-5)” value is given as 4. In addition, the TXN % in [4] (setting [22]) is 610%.

Take trans-zeatin: in experiment [4] (1 mg/l), the “increase of T0 Txn % relative to the control seedling germination medium with no cytokinin” value is reported as 1.2 fold. For the same molecule, in experiment [4] (setting [21]), the “# T0 plants” value was determined as 102, the “# culture response (2 wk)” value came out at 196, the “# culture response (4 wk)” value came to 177 and the “T-DNA score (0-5)” value amounted to 4. Also, the TXN % in experiment [4] (setting [21]) worked out at 486%. For the same molecule, the “increase of T0 Txn % relative to the control seedling germination medium with no cytokinin” value in experiment [4] (3 mg/l) came to 1.5 fold. Further, in experiment [4] (setting [23]), the “# T0 plants” value amounted to 130, the “# culture response (2 wk)” value is reported as 192, the “# culture response (4 wk)” value worked out at 222 and the “T-DNA score (0-5)” value turned out to be 4. In addition, the TXN % in [4] (setting [23]) is 619%.

On to `COc1ccc(C(O)(c2cncnc2)C2CC2)cc1` (stereo not drawn) [Ancymidol, ancymidol], for which the “seedling height after 14 days” value in experiment [6] (setting [24]) was 1-2 cm. For the same molecule, in [6] (900 plus 1 mg/l ancymidol), the “number of transgenic T0 plantlets compared to the other two treatments (0 and 2 mg/l)” value was “highest”. In addition, in experiment [7], the “Number of: Escapes” value is 3, the “Number of: Events regenerated” value was 7, the “Number of: Leaf segments/pieces responded” value is listed as 127 and the “Number of: Putative events” value amounted to 44. In addition, in experiment [7], the “Number of: RMCE events” value stood at 1 and the “Number of: SSI events” value was 3. Further, the “seedling height after 14 days” value in [8] (setting [24]) is given as 1-2 cm. For the same molecule, the “number of transgenic T0 plantlets compared to the other two treatments (0 and 2 mg/l)” value in experiment [8] (900 plus 1 mg/l ancymidol) is on record as “highest”. For the same molecule, the “seedling height after 14 days” value in experiment [9] (setting [24]) is reported as 1-2 cm. Further, the “number of transgenic T0 plantlets compared to the other two treatments (0 and 2 mg/l)” value in experiment [9] (900 plus 1 mg/l ancymidol) is on record as “highest”.

(Values after patent US20250311689A1, “SEEDLING GERMINATION AND GROWTH CONDITIONS” (PIONEER HI-BRED INTERNATIONAL, INC., priority 2022, published 2025).)
